# Measured values from EPA's ToxRefDB 2.
# Legend:
# [1] = tested on: rat; settings: Subchronic oral toxicity in rodents, fischer, Gavage/Intubation, dose end: 14 week, group: systemic, systemic / in life observation / body weight / body weight + systemic / in life observation / body weight / body weight gain + systemic / …
# [2] = tested on: mouse; settings: Subchronic oral toxicity in rodents, b6c3f1, Gavage/Intubation, dose end: 14 week, group: systemic
# [3] = tested on: mouse; settings: Carcinogenicity; b6c3f1; Oral; Gavage/Intubation; dose end: 105 week; group: systemic; systemic / in life observation / body weight / body weight + systemic / pathology microscopic / liver / hematopoietic cell proliferation + …
# [4] = tested on: rat; settings: Carcinogenicity; fischer; Oral; Gavage/Intubation; dose end: 105 week; group: systemic; systemic / in life observation / body weight / body weight + systemic / pathology gross / liver / discolored + systemic / pathology gross / …
# [5] = tested on: rabbit; settings: Prenatal developmental toxicity study, new zealand white, Oral, Gavage/Intubation, dose end: 27 GD
# [6] = tested on: rat; settings: Reproduction/developmental toxicity screening test, sprague dawley, Dermal, Topical, dose end: 1 generation
# [7] = tested on: rabbit; settings: Subchronic dermal toxicity, new zealand white, Topical, dose end: 13 week, group: systemic, systemic / pathology gross / skin / scabbing + systemic / pathology microscopic / skin / inflammation + systemic / in life observation / …
# [8] = tested on: rat; settings: Subchronic oral toxicity in rodents, other, [Not Specified], dose end: 90 day, group: systemic
# [9] = tested on: dog; settings: Chronic toxicity, beagle, Oral, Feed, dose end: 24 month, group: systemic
# [10] = tested on: rat; settings: Combined chronic toxicity/carcinogenicity; fischer; Oral; Feed; dose end: 110 week; group: systemic; systemic / clinical chemistry / cholesterol / cholesterol + systemic / clinical chemistry / creatinine / creatinine + systemic / clinical …
# [11] = tested on: rat; settings: Multigenerational reproductive toxicity study, sprague dawley, Oral, Feed, dose end: 2 generation
# [12] = tested on: hamster; settings: Subchronic oral toxicity in rodents, golden syrian, Feed, dose end: 13 week, group: systemic
# [13] = tested on: hamster; settings: Carcinogenicity; golden syrian; Oral; Feed; dose end: 88 week; group: systemic; systemic / pathology microscopic / pancreas / hyperplasia + systemic / pathology microscopic / prostate / secretory fluid + systemic / …
# [14] = tested on: hamster; settings: Carcinogenicity, golden syrian, Oral, Feed, dose end: 91 week, group: systemic
# [15] = tested on: rabbit; settings: Prenatal developmental toxicity study, new zealand white, Oral, Gavage/Intubation, dose end: 19 GD
# [16] = tested on: rat; settings: Prenatal developmental toxicity study, other, Oral, Gavage/Intubation, dose end: 15 GD
# [17] = tested on: dog; settings: Chronic toxicity, beagle, Oral, Feed, dose end: 52 week, group: systemic
# [18] = tested on: mouse; settings: Carcinogenicity, cd1, Oral, Feed, dose end: 24 month, group: systemic
# [19] = tested on: rat; settings: Subchronic oral toxicity in rodents, sprague dawley, Feed, dose end: 90 day, group: systemic
# [20] = tested on: rat; settings: Combined chronic toxicity/carcinogenicity, sprague dawley, Oral, Feed, dose end: 24 month, group: systemic
# [21] = systemic / in life observation / body weight / body weight gain + systemic / organ weight / liver / absolute + systemic / organ weight / …
# [22] = systemic / organ weight / epididymis / nos + systemic / organ weight / testes / nos
# [23] = group: developmental, systemic / in life observation / body weight / fetal weight
# [24] = group: maternal, systemic / in life observation / body weight / body weight gain + systemic / in life observation / food consumption / food consumption + …
# [25] = group: offspring, systemic / in life observation / body weight / offspring (pup) weight
# [26] = group: offspring, systemic / in life observation / body weight / offspring (pup) weight + systemic / in life observation / clinical signs / desquamation + …
# [27] = group: parental, systemic / in life observation / body weight / body weight + systemic / in life observation / body weight / body weight gain + systemic / in…
# [28] = group: parental, systemic / in life observation / clinical signs / desquamation + systemic / in life observation / clinical signs / erythema + systemic / …
# [29] = systemic / organ weight / liver / nos
# [30] = systemic / organ weight / liver / nos + systemic / hematology / leukocyte (wbc) count differential / leukocyte (wbc) + systemic / hematology…
# [31] = systemic / clinical chemistry / [other] / [other] + systemic / clinical chemistry / alanine aminotransferase (alt/sgpt) / alanine …
# [32] = group: reproductive, reproductive / reproductive performance / implantations / implantations
# [33] = systemic / clinical chemistry / lipids / phospholipids + systemic / organ weight / liver / nos + systemic / organ weight / prostate / nos + …
# [34] = systemic / clinical chemistry / lipids / phospholipids + systemic / organ weight / liver / nos + systemic / pathology microscopic / …
# [35] = systemic / in life observation / body weight / body weight gain
# [36] = systemic / in life observation / body weight / body weight gain + systemic / organ weight / heart / nos
# [37] = group: developmental, developmental / developmental malformation / aortic arch / dilated + developmental / developmental malformation / aortic arch / narrowed + …
# [38] = group: maternal, reproductive / reproductive performance / postimplantation loss / postimplantation loss + reproductive / reproductive performance / …
# [39] = group: developmental, developmental / developmental malformation / bone / unossified
# [40] = group: maternal, systemic / in life observation / body weight / body weight + systemic / in life observation / body weight / body weight gain + systemic / …
# [41] = systemic / pathology microscopic / prostate / hyperplasia
# [42] = systemic / pathology microscopic / liver / cytomegaly
# [43] = systemic / pathology microscopic / liver / cytomegaly + systemic / pathology microscopic / lung / adenoma + systemic / in life observation…
# [44] = systemic / clinical chemistry / calcium / calcium + systemic / organ weight / heart / relative to body weight
# [45] = systemic / in life observation / body weight / body weight + systemic / in life observation / body weight / body weight gain
smiles,measurement,setting,value
C=CCc1ccc(OC)c(OC)c1 [Methyleugenol],LEL,[1],10 mg/kg/day
same,LOAEL,[1],300 mg/kg/day
same,NEL,[1],< 10 mg/kg/day
same,NOAEL,[1],100 mg/kg/day
same,LOAEL,[2]; [21],300 mg/kg/day
same,NOAEL,[2]; [21],100 mg/kg/day
same,LEL,[2]; [22],10 mg/kg/day
same,NEL,[2]; [22],< 10 mg/kg/day
same,LEL,[3],37 mg/kg/day
same,LOAEL,[3],37 mg/kg/day
same,NEL,[3],< 37 mg/kg/day
same,NOAEL,[3],< 37 mg/kg/day
same,LEL,[4],37 mg/kg/day
same,LOAEL,[4],75 mg/kg/day
same,NEL,[4],< 37 mg/kg/day
same,NOAEL,[4],37 mg/kg/day
ClC=CC[N+]12CN3CN(CN(C3)C1)C2.[Cl-] [N-(3-Chloroallyl)hexaminium chloride],LEL,[5]; [23],16 mg/kg/day
same,LOAEL,[5]; [23],16 mg/kg/day
same,NEL,[5]; [23],5.1 mg/kg/day
same,NOAEL,[5]; [23],5.1 mg/kg/day
same,LEL,[5]; [24],16 mg/kg/day
same,LOAEL,[5]; [24],16 mg/kg/day
same,NEL,[5]; [24],5.1 mg/kg/day
same,NOAEL,[5]; [24],5.1 mg/kg/day
same,NEL,[6]; [25],75 mg/kg/day
same,LEL,[6]; [26],225 mg/kg/day
same,LOAEL,[6]; [26],> 750 mg/kg/day
same,NOAEL,[6]; [26],≥ 750 mg/kg/day
same,LOAEL,[6]; [27],> 750 mg/kg/day
same,NOAEL,[6]; [27],≥ 750 mg/kg/day
same,LEL,[6]; [28],75 mg/kg/day
same,NEL,[6]; [28],< 75 mg/kg/day
same,LEL,[7],50 mg/kg/day
same,LOAEL,[7],> 1000 mg/kg/day
same,NEL,[7],< 50 mg/kg/day
same,NOAEL,[7],≥ 1000 mg/kg/day
N#Cc1c(Cl)cccc1Cl [Dichlobenil],LEL,[8]; [29],50 mg/kg/day
same,LOAEL,[8]; [29],50 mg/kg/day
same,NEL,[8]; [30],5 mg/kg/day
same,NOAEL,[8]; [30],5 mg/kg/day
same,LOAEL,[9]; [31],8.75 mg/kg/day
same,NEL,[9]; [31],0.5 mg/kg/day
same,NOAEL,[9]; [31],1.25 mg/kg/day
same,LEL,[9]; systemic / urinalysis / occult blood / blood,1.25 mg/kg/day
same,LEL,[10],17.3 mg/kg/day
same,LOAEL,[10],17.3 mg/kg/day
same,NEL,[10],2.1 mg/kg/day
same,NOAEL,[10],2.1 mg/kg/day
same,LEL,[11]; [25],15 mg/kg/day
same,LOAEL,[11]; [25],15 mg/kg/day
same,NEL,[11]; [25],3 mg/kg/day
same,NOAEL,[11]; [25],3 mg/kg/day
same,LEL,[11]; [27],100 mg/kg/day
same,LOAEL,[11]; [27],100 mg/kg/day
same,NEL,[11]; [27],15 mg/kg/day
same,NOAEL,[11]; [27],15 mg/kg/day
same,LEL,[11]; [32],100 mg/kg/day
same,LOAEL,[11]; [32],> 100 mg/kg/day
same,NEL,[11]; [32],15 mg/kg/day
same,NOAEL,[11]; [32],≥ 100 mg/kg/day
same,LEL,[12]; [33],18.8 mg/kg/day
same,LOAEL,[12]; [33],18.8 mg/kg/day
same,NEL,[12]; [34],3.75 mg/kg/day
same,NOAEL,[12]; [34],3.75 mg/kg/day
same,LEL,[13],45.6 mg/kg/day
same,LOAEL,[13],45.6 mg/kg/day
same,NEL,[13],9.39 mg/kg/day
same,NOAEL,[13],9.39 mg/kg/day
same,LOAEL,[14]; [35],51 mg/kg/day
same,NOAEL,[14]; [35],< 51 mg/kg/day
same,LEL,[14]; [36],51 mg/kg/day
same,NEL,[14]; [36],< 51 mg/kg/day
same,LEL,[15]; [37],135 mg/kg/day
same,LOAEL,[15]; [37],135 mg/kg/day
same,NEL,[15]; [37],45 mg/kg/day
same,NOAEL,[15]; [37],45 mg/kg/day
same,LEL,[15]; [38],135 mg/kg/day
same,LOAEL,[15]; [38],135 mg/kg/day
same,NEL,[15]; [38],45 mg/kg/day
same,NOAEL,[15]; [38],45 mg/kg/day
COc1nc(C)nc(NC(=O)NS(=O)(=O)c2ccccc2OCCCl)n1 [Triasulfuron],LEL,[16]; [39],100 mg/kg/day
same,LOAEL,[16]; [39],900 mg/kg/day
same,NEL,[16]; [39],< 100 mg/kg/day
same,NOAEL,"[16]; group: developmental, developmental / developmental malformation / bone / unossified + systemic / in life observation / body weight / fetal weight",300 mg/kg/day
same,LOAEL,"[16]; group: maternal, systemic / in life observation / body weight / body weight + systemic / in life observation / body weight / body weight gain",300 mg/kg/day
same,LEL,"[16]; group: maternal, systemic / in life observation / body weight / body weight + systemic / in life observation / body weight / body weight gain + systemic / in…",300 mg/kg/day
same,NEL,[16]; [40],100 mg/kg/day
same,NOAEL,[16]; [40],100 mg/kg/day
same,LEL,[17]; [41],2.5 mg/kg/day
same,LOAEL,[17]; [41],25 mg/kg/day
same,NEL,[17]; [41],< 2.5 mg/kg/day
same,NOAEL,[17]; systemic / pathology microscopic / prostate / hyperplasia + systemic / hematology / erythrocyte (rbc) count differential / erythrocyte (rbc…,2.5 mg/kg/day
same,LEL,[18]; [42],129 mg/kg/day
same,LOAEL,[18]; [42],129 mg/kg/day
same,NEL,[18]; [43],1.2 mg/kg/day
same,NOAEL,[18]; [43],1.2 mg/kg/day
same,LEL,[19]; [44],10 mg/kg/day
same,NEL,[19]; [44],< 10 mg/kg/day
same,LOAEL,[19]; systemic / in life observation / body weight / body weight + systemic / in life observation / food consumption / food consumption,500 mg/kg/day
same,NOAEL,[19]; systemic / in life observation / body weight / body weight + systemic / in life observation / food consumption / food consumption + systemic…,10 mg/kg/day
same,LOAEL,[20]; [45],221 mg/kg/day
same,NOAEL,[20]; [45],32.1 mg/kg/day
same,LEL,[20]; systemic / in life observation / clinical signs / palpable mass,42.9 mg/kg/day
same,NEL,[20]; systemic / in life observation / clinical signs / palpable mass + systemic / in life observation / body weight / body weight + systemic / in…,0.4 mg/kg/day
